Key:
[1] = molecular target: human CB2 receptors (Homo sapiens (Human), UniProt P34972); test: cAMP assay, CHO cells expressing human CB2 receptors; format: cell-based; details: CHO cells expressing human CB2, cAMP; read-out: human CB2 EC50
How it was run: (§1)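 CHO cells expressing human CB1 or CB2 were preincubated 30 min at 30 °C in Krebs Ringer bicarbonate buffer with 1 mM IBMX, then exposed to compound 30 min at 30 °C. cAMP quantified by time-resolved FRET against a cAMP standard curve; EC50 values derived.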

[2] = molecular target: human CB1 receptors (Homo sapiens (Human), UniProt P21554); test: cAMP assay, CHO cells expressing human CB1 receptors; format: cell-based; details: CHO cells expressing human CB1, cAMP; read-out: human CB1 EC50
human CB1 receptors, sequence (P21554 whole entry): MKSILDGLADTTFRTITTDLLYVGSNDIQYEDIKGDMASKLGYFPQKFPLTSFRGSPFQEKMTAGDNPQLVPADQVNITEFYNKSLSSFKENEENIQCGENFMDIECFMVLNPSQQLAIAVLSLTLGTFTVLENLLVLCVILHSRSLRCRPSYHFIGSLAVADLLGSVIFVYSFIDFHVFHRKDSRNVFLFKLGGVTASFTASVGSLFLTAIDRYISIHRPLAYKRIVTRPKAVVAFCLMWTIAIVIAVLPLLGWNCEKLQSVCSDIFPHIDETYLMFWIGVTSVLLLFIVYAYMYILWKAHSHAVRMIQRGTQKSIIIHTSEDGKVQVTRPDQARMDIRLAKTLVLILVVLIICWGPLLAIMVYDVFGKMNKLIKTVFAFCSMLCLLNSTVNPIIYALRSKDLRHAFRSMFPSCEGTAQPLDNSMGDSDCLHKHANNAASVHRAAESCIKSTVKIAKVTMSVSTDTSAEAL
How it was run: as §1

human CB2 receptors, sequence (P34972 whole entry): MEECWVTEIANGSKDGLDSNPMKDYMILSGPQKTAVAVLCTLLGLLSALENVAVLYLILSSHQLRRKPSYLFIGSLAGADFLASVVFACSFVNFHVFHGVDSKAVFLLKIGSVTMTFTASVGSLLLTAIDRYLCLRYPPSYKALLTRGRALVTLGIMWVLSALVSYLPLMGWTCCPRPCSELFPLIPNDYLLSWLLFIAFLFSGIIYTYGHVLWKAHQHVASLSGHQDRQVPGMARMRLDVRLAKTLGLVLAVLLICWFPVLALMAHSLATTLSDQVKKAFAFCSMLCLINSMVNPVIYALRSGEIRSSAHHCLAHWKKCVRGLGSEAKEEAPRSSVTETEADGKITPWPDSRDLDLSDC

Row | SMILES | EC50 [1] | EC50 [2]
1 | COC(=O)[C@H](CC(C)C)NC(=O)c1ccc(C2CC2)c(OCC2CC2)n1 [Example 270, (S)-2-[(5-Cyclopropyl-6-cyclopropylmethoxy-pyridine-2-carbonyl)-amino]-4-methyl-pentanoic acid methyl ester] | 1.3 nM | 91.4 nM
2 | CCOC(=O)C(CC)(CC)NC(=O)c1ccc(N2CC(F)(F)C2)c(OCC2CC2)n1 [Example 266, 2-{[6-Cyclopropylmethoxy-5-(3,3-difluoro-azetidin-1-yl)-pyridine-2-carbonyl]-amino}-2-ethyl-butyric acid ethyl ester] | 2 nM | 1300 nM
3 | COCCOCC(C)(C)NC(=O)c1ccc(N2CC(F)(F)C2)c(-c2cccc(Cl)c2)n1 [Example 152, 6-(3-Chloro-phenyl)-5-(3,3-difluoro-azetidin-1-yl)-pyridine-2-carboxylic acid [2-(2-methoxy-ethoxy)-1,1-dimethyl-ethyl]-amide] | 442 nM | > 10000 nM
4 | CC(C)(NC(=O)c1ccc(C(F)(F)F)c(OCC2CC2)n1)c1ncon1 [Example 119, 6-Cyclopropylmethoxy-5-trifluoromethyl-pyridine-2-carboxylic acid (1-methyl-1-[1,2,4]oxadiazol-3-yl-ethyl)-amide] | 227 nM | > 10000 nM
5 | NC(=O)[C@H](NC(=O)c1ccc(C2CC2)c(OCC2CC2)n1)c1ccccc1 [Example 173, (R)-N-(2-Amino-2-oxo-1-phenylethyl)-5-cyclopropyl-6-(cyclopropylmethoxy)picolinamide] | 23.1 nM | > 10000 nM
6 | O=C(NC1CCCOC1)c1cccc(-c2cccc(Cl)c2)n1 (stereo not drawn) [Example 30, 6-(3-Chloro-phenyl)-pyridine-2-carboxylic acid (tetrahydro-pyran-3-yl)-amide] | 658 nM | > 10000 nM
7 | O=C(N[C@H]1CCOC1=O)c1ccc(C2CC2)c(OCC2CC2)n1 [Example 362, 5-Cyclopropyl-6-cyclopropylmethoxy-pyridine-2-carboxylic acid ((S)-2-oxo-tetrahydro-furan-3-yl)-amide] | 441 nM | > 10000 nM
8 | CNC(=O)C(C)(C)NC(=O)c1ccc(N2CCC(F)(F)C2)c(OCC2CC2)n1 [Example 80, 6-Cyclopropylmethoxy-5-(3,3-difluoro-pyrrolidin-1-yl)-pyridine-2-carboxylic acid (1-methyl-1-methylcarbamoyl-ethyl)-amide] | 134 nM | 5.8 nM
9 | CC(C)C[C@H](NC(=O)c1ccc(C2CC2)c(OCC2CC2)n1)C(N)=O [Example 100, 5-Cyclopropyl-6-cyclopropylmethoxy-pyridine-2-carboxylic acid ((S)-1-carbamoyl-3-methyl-butyl)-amide] | 1.2 nM | 801 nM
10 | Cc1nc([C@@H](C)NC(=O)c2ccc(C3CC3)c(OCC3CC3)n2)no1 [Example 241, 5-Cyclopropyl-6-cyclopropylmethoxy-pyridine-2-carboxylic acid [(−)-1-(5-methyl-[1,2,4]oxadiazol-3-yl)-ethyl]-amide] | 49.1 nM | > 10000 nM
11 | CC1CC(NC(=O)c2cccc(-c3cccc(Cl)c3)n2)CCO1 (stereo not drawn) [Example 26, 6-(3-Chloro-phenyl)-pyridine-2-carboxylic acid (2-methyl-tetrahydro-pyran-4-yl)-amide] | 691 nM | > 10000 nM
12 | Cc1ccc(C(=O)N[C@@H](CC(C)C)c2nccs2)nc1OCC1CC1 [Example 64, 6-Cyclopropylmethoxy-5-methyl-pyridine-2-carboxylic acid ((S)-3-methyl-1-thiazol-2-yl-butyl)-amide] | 18.9 nM | 1460 nM
13 | CC(C)(NC(=O)c1ccc(Cl)c(-c2cccc(Cl)c2)n1)c1nccs1 [Example 58, 5-Chloro-6-(3-chloro-phenyl)-pyridine-2-carboxylic acid (1-methyl-1-thiazol-2-yl-ethyl)-amide] | 104 nM | 1110 nM
14 | CC(C)(CCO)NC(=O)c1ccc(C2CC2)c(OCC2CC2)n1 [Example 194, 5-Cyclopropyl-6-(cyclopropylmethoxy)-N-(4-hydroxy-2-methylbutan-2-yl)picolinamide] | 99.1 nM | > 10000 nM
15 | CC(C)(CCN1CCOCC1)NC(=O)c1ccc(N2CCCC2)c(OCC2CC2)n1 [Example 35, 6-Cyclopropylmethoxy-5-pyrrolidin-1-yl-pyridine-2-carboxylic acid (1,1-dimethyl-3-morpholin-4-yl-propyl)-amide] | 7.1 nM | > 10000 nM
16 | CCC(CC)(NC(=O)c1ccc(N2CCCC2)c(OCC2CC2)n1)C(=O)O [Example 291, 2-[(6-Cyclopropylmethoxy-5-pyrrolidin-1-yl-pyridine-2-carbonyl)-amino]-2-ethyl-butyric acid] | 413 nM | > 10000 nM
17 | CC(C)(NC(=O)c1ccc(C2CCOCC2)c(OCC2CC2)n1)c1nccs1 [Example 34, 6-Cyclopropylmethoxy-5-(tetrahydro-pyran-4-yl)-pyridine-2-carboxylic acid (1-methyl-1-thiazol-2-yl-ethyl)-amide] | 53.7 nM | > 10000 nM
18 | CNC(=O)[C@H](CC(C)(C)C)NC(=O)c1ccc(C2CC2)c(S(=O)(=O)CC(C)C)n1 [Example 361, 5-Cyclopropyl-6-(2-methyl-propane-1-sulfonyl)-pyridine-2-carboxylic acid ((S)-3,3-dimethyl-1-methylcarbamoyl-butyl)-amide] | 42.5 nM | > 10000 nM
19 | Cc1nc([C@@H](NC(=O)c2ccc(C3CC3)c(OCC3CC3)n2)C2CC2)no1 [Example 198, (+)-5-Cyclopropyl-6-cyclopropylmethoxy-pyridine-2-carboxylic acid [cyclopropyl-(5-methyl-[1,2,4]oxadiazol-3-yl)-methyl]-amide] | 6.8 nM | > 10000 nM
20 | CSCC[C@H](NC(=O)c1ccc(N2CC(F)(F)C2)c(OCC2CC2)n1)C(N)=O [Example 342, 6-Cyclopropylmethoxy-5-(3,3-difluoro-azetidin-1-yl)-pyridine-2-carboxylic acid ((S)-1-carbamoyl-3-methylsulfanyl-propyl)-amide] | 2.8 nM | > 10000 nM
21 | CC(C)C[C@H](NC(=O)c1ccc(C2CC2)c(OCC2CCCO2)n1)C(N)=O (stereo partly drawn) [Example 186, N-((S)-1-Amino-4-methyl-1-oxopentan-2-yl)-5-cyclopropyl-6-((tetrahydrofuran-2-yl)methoxy)picolinamide] | 1.1 nM | 1490 nM
22 | NC(=O)[C@H](NC(=O)c1ccc(C2CC2)c(OCC2CC2)n1)C1CC1 [Example 375, 5-Cyclopropyl-6-cyclopropylmethoxy-pyridine-2-carboxylic acid ((−)-carbamoyl-cyclopropyl-methyl)-amide] | 358 nM | > 10000 nM
23 | O=C(NN1CCCCC1)c1cccc(C2CCOCC2)n1 [Example 37, 6-(Tetrahydro-pyran-4-yl)-pyridine-2-carboxylic acid piperidin-1-ylamide] | 625 nM | > 10000 nM
24 | CCC(CC)(NC(=O)c1ccc(C2CC2)c(OCC2CC2)n1)C(=O)NCCOC [Example 275, 5-Cyclopropyl-6-cyclopropylmethoxy-pyridine-2-carboxylic acid [1-ethyl-1-(2-methoxy-ethylcarbamoyl)-propyl]-amide] | 51.8 nM | > 10000 nM
